Experimental data reported in patent US4596873A, “1,4,5,6,7,8-Hexahydro-2-alkyl-4-aryl-5-oxo-1,7-naphthyridine-3-carboxyl ic acid aromatic esters and pharmaceutically acceptable acid addition salts thereof useful as antihypertensive agents” (American Home Products Corporation, priority 1985, dated 1986).

Columns and labels:
[1] = test system: spontaneously hypertensive rats; assay: decrease in systolic blood pressure of spontaneously hypertensive rats; type: in vivo, rat
[2] = test system: arterial actin-myosin interactions; assay: inhibition of superprecipitation (antagonism of arterial actin-myosin interaction); type: biochemical; settings: six minute time-point, mean±SEM
Description: (§1) The data reported herein was obtained at a six minute time-point rather than the 1.5, 5 and 12 minute time points indicated in the superprecipitation assay of the Silver et al. paper.
(§2) The following examples illustrate the preparation of a representative number of compounds of this invention. After each example, and Ca^+2 antagonist activity of the compound is presented in terms of percent relaxation of aortic tissue (P.R.) at 10^-5 M concentration. […] Inhibition of superprecipitation (Antag. of Actin-Myosin interaction) is expressed as percent inhibition (mean±standard error of the mean for at least 3 separate experiments) at a compound concentration. In the same manner, inhibition of myosin light chain phosphorylation (Antag. of MLCP) is expressed as a percent inhibition at a compound concentration. Similarly, the antihypertensive activity is reported in terms of millimeters mercury (mmHg) systolic blood pressure (B.P.) reduction at the stated time post 50 mg/kg oral dosing or other dosing as indicated.

[3] = test system: Ca^+2 -calmodulin dependent myosin light chain phosphorylation; assay: inhibition of Ca^+2-calmodulin dependent myosin light chain phosphorylation (MLCP); type: biochemical
Description: as §1, §2

[4] = test system: isolated paced intact rabbit atria; assay: negative inotropic (cardiac depressant) effect in isolated paced intact rabbit atria; type: cell-based; settings: Oryctolagus cuniculus, 3 Hz, cumulative 10^-9 M to 10^-5 M, read-out: IC25 (concentration which produces 25% inhibition of isometric force)
Description: The potential for detrimental cardiac depressant (negative inotropic) effects of the compounds of this invention was assessed in isolated paced intact rabbit atria. Left and right atria (with nodal tissue excised) were suspended vertically in a jacketed (30° C.) organ bath containing 50 ml of PSS and aerated with 95% O2 /5% CO2. Muscles (N=5-9/compound) were stimulated at a frequency of 3 Hz with a WPI stimulator for a 60 minute equilibration period. Changes in isometric force were recorded as described for the aortic smooth muscle experiments,supra. Following equilibration, the test compound (or as a control, the ethanol vehicle) was added to the organ bath in a cumulative manner from doses ranging from 10^-9 M to 10^-5 M (10^-5 M was the maximum dose which could be attained due to the depressant effect of ethanol) and effects on developed isometric force were determined.
as §2

COC(COC(=O)C1=C(C)NC2=C(C(=O)CNC2)C1c1c(F)c(F)c(F)c(F)c1F)c1ccccc1 (stereo not shown) [Example 5, 1,4,5,6,7,8-Hexahydro-2-methyl-5-oxo-4-(pentafluorophenyl)-1,7-naphthryridine-3-carboxylic acid 2-methoxy-2-phenylethyl ester]
systolic blood pressure (B.P.) reduction ([1]; 5 mg/kg, 1.5 hours): -44 mmHg
systolic blood pressure (B.P.) reduction ([1]; 5 mg/kg, 4 hours): -38 mmHg
systolic blood pressure (B.P.) reduction ([1]; 10 mg/kg, 1.5 hours): -41 mmHg
systolic blood pressure (B.P.) reduction ([1]; 10 mg/kg, 4 hours): -68 mmHg
systolic blood pressure (B.P.) reduction ([1]; 25 mg/kg, 1.5 hours): -60 mmHg
systolic blood pressure (B.P.) reduction ([1]; 25 mg/kg, 4 hours): -72 mmHg
inhibition of superprecipitation (Antag. of Actin-Myosin) ([2]; 25 μM): 20±5%
inhibition of superprecipitation (Antag. of Actin-Myosin) ([2]; 50 μM): 50±5%
inhibition of superprecipitation (Antag. of Actin-Myosin) ([2]; 100 μM): 75±4%
inhibition of myosin light chain phosphorylation (Antag. of MLCP) ([3]; 25 μM): 21±3%
inhibition of myosin light chain phosphorylation (Antag. of MLCP) ([3]; 50 μM): 48±2%
inhibition of myosin light chain phosphorylation (Antag. of MLCP) ([3]; 100 μM): 70±3%
IC25 [4]: 1000 nM

CO[C@H](COC(=O)C1=C(C)NC2=C(C(=O)CNC2)C1c1c(F)c(F)c(F)c(F)c1F)c1ccccc1 (stereo partly drawn) [Example 7, 1,4,5,6,7,8-Hexahydro-2-methyl-5-oxo-4-(pentafluorophenyl)-1,7-naphthyridine-3-carboxylic acid (S)-2-methoxy-2-phenylethyl ester]
systolic blood pressure (B.P.) reduction ([1]; 10 mg/kg, 1.5 hours): -51 mmHg
systolic blood pressure (B.P.) reduction ([1]; 10 mg/kg, 4 hours): -54 mmHg
inhibition of superprecipitation (Antag. of Actin-Myosin) ([2]; 50 μM): 67%
inhibition of superprecipitation (Antag. of Actin-Myosin) ([2]; 100 μM): 80%
inhibition of myosin light chain phosphorylation (Antag. of MLCP) ([3]; 50 μM): 59%
inhibition of myosin light chain phosphorylation (Antag. of MLCP) ([3]; 100 μM): 74%
IC25 [4]: 6500 nM

CC1=C(C(=O)OCCOc2cccc(Cl)c2Cl)C(c2c(F)c(F)c(F)c(F)c2F)C2=C(CNCC2=O)N1 (stereo not shown) [Example 22, 1,4,5,6,7,8-Hexahydro-2-methyl-5-oxo-4-(pentafluorophenyl)-1,7-naphthyridine-3-carboxylic acid 2-(2,3-dichlorophenoxy)ethyl ester]
systolic blood pressure (B.P.) reduction ([1]; 25 mg/kg, 1.5 hours): -37 mmHg
systolic blood pressure (B.P.) reduction ([1]; 25 mg/kg, 4 hours): -52 mmHg
inhibition of superprecipitation (Antag. of Actin-Myosin) ([2]; 10 μM): 30±3%
inhibition of superprecipitation (Antag. of Actin-Myosin) ([2]; 25 μM): 54±3%
inhibition of superprecipitation (Antag. of Actin-Myosin) ([2]; 50 μM): 75±4%
inhibition of superprecipitation (Antag. of Actin-Myosin) ([2]; 100 μM): 78±1%
inhibition of myosin light chain phosphorylation (Antag. of MLCP) ([3]; 10 μM): 25%
inhibition of myosin light chain phosphorylation (Antag. of MLCP) ([3]; 25 μM): 54±2.5%
inhibition of myosin light chain phosphorylation (Antag. of MLCP) ([3]; 50 μM): 73±1.5%
inhibition of myosin light chain phosphorylation (Antag. of MLCP) ([3]; 100 μM): 74±2%
IC25 [4]: 1000 nM
